This passage reports TGI results from PubChem BioAssay (NCI).

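Cultured in 96-well plates, cells were exposed to test compound for 48 hours across five concentrations. TGI: concentration producing complete growth inhibition.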

What all share (test): DTP human tumour cell line panel, 48 h
Assay [1] concerns HT29 colon.
For assay [2], the system named is SNB-19 CNS.
Assay [3] has as its system HOP-92 NSCLC.
The subject of assay [4] is U251 CNS.
Assay [5] concerns MALME-3M melanoma.
Assay [6] relates to NCI-H226 lung.
For assay [7], the system named is NCI-H23 lung.
The subject of assay [8] is UACC-62 melanoma.
For assay [9], the system named is KM12 colon.
Assay [10] concerns NCI/ADR-RES ovarian.

As a reminder, the TGI is the concentration at which net growth stops. In the case of `CCOC(=O)C(C(=S)Nc1ccccc1)c1nn2c(=O)cc(C)nc2s1` (stereo not given), the TGI in assay [1] is 41.4 µM; in assay [2] it was > 100 µM; in [3], 57.4 µM; in assay [4] it was 83 µM; in assay [5], 53.5 µM; in assay [6], 70 µM. Besides, the TGI in assay [7] was 89.5 µM; in [8], 66.1 µM; in [9], 68.8 µM; in [10], 67.2 µM.

Turning to `CSc1ccc(NC(=S)NN(C)C)cc1`, the TGI in [1], in [2], in assay [3], in assay [4], in assay [5] and in [6] was > 10 µM each time. Besides, the TGI in assay [7], in assay [8], in assay [9] and in [10] was > 10 µM each time.

Turning to `Cc1cc(NC[C@H](O)[C@H](O)[C@H](O)CO)c(Sc2cc(=O)[nH]c(=O)[nH]2)cc1C`, the TGI in assay [1], in assay [2], in [3], in assay [4], in assay [5] and in assay [6] was > 62.5 µM in each case. In addition, the TGI in [7], in [8], in [9] and in assay [10] was > 62.5 µM throughout.

On to `Brc1ccc2c([C@H]3CN[C@@H](c4c[nH]c5cc(Br)ccc45)CN3)c[nH]c2c1`, for which the TGI worked out at 4.01 µM in [1]; 21.8 µM in assay [2]; 12.2 µM in assay [3]; 4.19 µM in assay [4]; 7.73 µM in [5]; 20.8 µM in assay [6]. Also, the concentration for total growth inhibition (TGI) in [7] stood at 8.95 µM; in assay [8] it was 23.2 µM; in [9], 3.28 µM; in assay [10], 17.1 µM.

Turning to `Fc1ccc2nc3n(c2c1)C(c1c(Cl)cccc1Cl)SC3` (stereo not given), the TGI in [1], in [2], in assay [3], in assay [4], in assay [5] and in [6] was > 100 µM throughout. Besides, the TGI in assay [7], in [8], in [9] and in [10] was > 100 µM throughout.

With `Cc1noc2nnn(-c3ccc(Cl)cc3)c(=O)c12`, the TGI stood at 17.2 µM in assay [1]; 26.1 µM in assay [2]; 17.9 µM in assay [3]; 17.7 µM in assay [4]; 26 µM in [5]; 9.83 µM in assay [6]. Further, the TGI in assay [7] was determined as 20.5 µM; in assay [8], 17.8 µM; in assay [9], 31.1 µM; in assay [10], 29.8 µM.

`N=C(N)SCc1ccc(Cl)cc1Cl` (tested in a mixture with another compound): the TGI came out at 29.2 µM in assay [1]; 47.6 µM in assay [2]; 34.6 µM in [3]; 28.5 µM in [4]; 34.2 µM in assay [5]; 40.9 µM in [6]. For the same molecule, the TGI in assay [7] was 32.4 µM; in assay [8], 28.3 µM; in [9], 28.2 µM; in assay [10], 73.9 µM.

Regarding `Nc1nc(Cl)cc(NCCC2(CO)CCC2)n1`, the TGI in [1], in assay [2], in [3], in assay [4], in assay [5] and in [6] was > 100 µM throughout. For the same molecule, the TGI in assay [7], in assay [8], in [9] and in assay [10] was > 100 µM each time.

In the case of `CCOC(=O)C(Cl)(NC(=O)c1c(F)c(F)c(F)c(F)c1F)C(F)(F)F` (stereo not given), the TGI in assay [1] was > 100 µM; in assay [2] it was > 100 µM; in [3], 75.3 µM; in assay [4], > 100 µM; in [5], > 100 µM; in [6], > 100 µM. The TGI in assay [7], in [8], in assay [9] and in assay [10] was > 100 µM in each case.

In the case of `COc1ccc(/C=C2\N=C(c3ccccc3)N(N=C3NC(=O)CC(=O)N3)C2=O)cc1`, the TGI in assay [1], in [2], in [3], in assay [4], in assay [5] and in [6] was > 100 µM in each case. Moreover, the TGI in assay [7], in [8], in [9] and in assay [10] was > 100 µM in each case.

Take `Cn1c2ccccc2c2c(=O)[nH]c(=O)[nH]c21`: the TGI in assay [1], in assay [2], in assay [3], in assay [4], in assay [5] and in assay [6] was > 100 µM each time. Also, the TGI in assay [7], in assay [8], in assay [9] and in assay [10] was > 100 µM throughout.

As for `CSc1c(C#N)c(N)nc2c(N=Nc3ccc(Cl)cc3)c(N)nn12`, the TGI in assay [1] is 8.38 µM; in assay [2], 40.7 µM; in assay [3] it was 8.64 µM; in [4] it was 11 µM; in [5], 16.4 µM; in [6] it was 37.9 µM. Besides, the TGI in assay [7] worked out at 7.25 µM; in assay [8] it was 8.77 µM; in assay [9] it was 11.8 µM; in assay [10], 39 µM.

In the case of `COCOc1c(C(O[Si](C)(C)C(C)(C)C)c2cnc(Sc3ccccc3)n2C)ccc(OC)c1OC` (stereo not given), the concentration for total growth inhibition (TGI) in [1] worked out at 4.15 µM; in [2], 6.27 µM; in assay [3], 6.36 µM; in [4], 3.1 µM; in assay [5], 8.93 µM; in assay [6] it was 4.14 µM. Also, the TGI in assay [7] was > 100 µM; in assay [8] it was 3.91 µM; in assay [9], 3.93 µM; in assay [10] it was 2.75 µM.
